From patent US10029986B2, “Alkynyl pyridine-substituted amide compound and pesticide” (NISSAN CHEMICAL INDUSTRIES, LTD., priority 2014, dated 2018)

Columns and labels:
[1] = system: Blumeria graminis f. sp. tritici; experiment: Test on the preventive effect against wheat powdery mildew; format: in vivo; conditions: 168 h, test solution A 500 ppm, 5 ml per pot, wheat 1.3-leaf stage, 7 days after inoculation
How it was run: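 Compounds formulated as 20 wt % emulsifiable concentrates and diluted with water to 500 ppm; 5 ml per pot applied to wheat (Norin 61) at the 1.3-leaf stage. Conidia inoculated one day later in a 20° C greenhouse; lesion proportion scored after 7 days as control value, in duplicate.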

Botrytis cinerea [2] = experiment: Test on the preventive effect against cucumber gray mold (spore inoculation); format: in vivo; conditions: 72 h, test solution A 500 ppm, 5 ml per pot, cucumber cut leaves, conidium inoculation, 3 days at 20° C.
How it was run: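 Cotyledon-stage cucumber (Sagami Hanjiro) sprayed with 500 ppm compound from emulsifiable concentrate; detached treated leaves inoculated with B. cinerea conidia in PDA (1:1). After 3 days at 20 °C, humid, lesion proportion gave control value; duplicate test.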

Botrytis cinerea [3] = experiment: Test on the preventive effect against cucumber gray mold (mycelium inoculation); format: in vivo; conditions: 48 h, test solution A 500 ppm, 5 ml per pot, cucumber cotyledon, agar block inoculation, 2 days at 20° C.
How it was run: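 Cucumber cotyledons (Sagami Hanjiro) were sprayed with 5 ml per pot of a 500 ppm dilution of a 20 wt % emulsifiable concentrate. Next day, mycelial agar plugs of Botrytis cinerea were placed on cotyledons, held humid at 20° C for 2 days. Lesion proportion gave the control value; duplicate.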

Sclerotinia sclerotiorum = experiment: Test on the preventive effect against cucumber stem rot; format: in vivo; conditions: 48 h, test solution A 500 ppm, 5 ml per pot, agar block inoculation, 2 days at 20° C.
How it was run: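 Cucumber (Sagami Hanjiro) at cotyledon stage sprayed with 5 ml/pot of 500 ppm compound from a 20 wt % emulsifiable concentrate, air-dried, then inoculated on seed leaves with agar blocks of S. sclerotiorum grown on PDA. Kept humid at 20° C for 2 days; lesion proportion scored and control value calculated, in duplicate.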

[4] = system: Barber pole worm (Haemonchus contortus); experiment: Insecticidal test against Barber pole worm (eggs, 96 well plate); format: in vivo; conditions: 96 h, test solution B 100 ppm, 10 μl per well, 25° C. dark, 4 days after treatment, read-out: efficacy (unhatched eggs and inactive larvae relative to non-treated)
Procedure: (§1) Compounds of the present invention were dissolved in dimethyl sulfoxide to prepare 1 wt % solutions. Then, distilled water was added to dilute the solutions to the prescribed concentration (100 ppm), and the obtained solutions were used in the following the Test Examples 9 to 12. 60 μl of a potato dextrose 1% agar medium was added to each well of a 96 well plate, and 30 μl of sterilized water containing eggs of Barber pole worm (Haemonchus contortus) (10 eggs/3 μl) was added to each well. Further, 10 μl per well of test solution B of the compounds of the present invention was added, and the plate was left at rest at 25° C. under dark conditions.

Asperaillus niger = experiment: Test on the antifungal activity against Asperaillus niger; format: cell-based; conditions: 48 h; test solution B 100 ppm, 10 μl per well, 96 well plate, 25° C. dark, 2 days after treatment; read-out: efficacy (flora area ratio relative to non-treated well)
Procedure: as §1, with “spores” for “eggs”, “Asperaillus niger” for “Barber pole worm (Haemonchus contortus)”, “spores/3” for “eggs/3”, “conditions. 2 days after treatment, the flora area ratio (%) was determined to calculate the efficacy (%) relative to the non-treated well in accordance with the following formula. Efficacy (%)=[1−(flora area ratio in treated plot/flora area ratio in non-treated well)]×100” for “conditions.”

SMILES	pest or weed control at 500 µg/mL [1] [%]	pest or weed control at 500 µg/mL (Botrytis cinerea [2]) [%]	pest or weed control at 500 µg/mL (Botrytis cinerea [3]) [%]	pest or weed control at 500 µg/mL (Sclerotinia sclerotiorum) [%]	pest or weed control at 100 µg/mL [4] [%]	inhibition of growth at 100 µg/mL (Asperaillus niger) [%]
COC(c1ncc(C#CC2CC2)cc1Cl)C(C)NC(=O)c1ccccc1C(F)(F)F (stereo not drawn) [1-024]	≥ 70	≥ 70	≥ 70	≥ 70	≥ 50	≥ 50
COC(c1ncc(C#CC(C)(C)C)cc1Cl)C(C)NC(=O)c1ccccc1C(F)(F)F (stereo not drawn) [1-025]	≥ 70	≥ 70	≥ 70	≥ 70	≥ 50	≥ 50
O=C(NCCc1ncc(C#CC2CC2)cc1Cl)c1cccnc1C(F)F [3-001, N-[2-[3-chloro-5-(cyclopropylethynyl)pyridin-2-yl]ethyl]-2-(difluoromethyl)nicotinamide]	≥ 70	≥ 70	≥ 70	≥ 70	≥ 50	≥ 50
CC(C)(C)C#Cc1cnc(CCNC(=O)c2cccnc2C(F)F)c(Cl)c1 [3-002]	≥ 70	≥ 70	≥ 70	≥ 70	≥ 50	≥ 50
O=C(NCC(F)(F)c1ncc(C#CC2CC2)cc1Cl)c1cccnc1C(F)F [3-003, N-[2-[3-chloro-5-(cyclopropylethynyl)pyridin-2-yl]-2,2-difluoroethyl]-2-(difluoromethyl)nicotinamide]	≥ 70	≥ 70	≥ 70	≥ 70	≥ 50	≥ 50
CC(CNC(=O)c1cccnc1Cl)c1ncc(C#CC2CC2)cc1Cl (stereo not drawn) [3-005]	≥ 70	≥ 70	≥ 70	≥ 70	≥ 50	≥ 50
CC(CNC(=O)c1cccnc1C(F)F)c1ncc(C#CC2CC2)cc1Cl (stereo not drawn) [3-006]	≥ 70	≥ 70	≥ 70	≥ 70	≥ 50	≥ 50
CC(C)(CNC(=O)c1cccnc1C(F)F)c1ncc(C#CC2CC2)cc1Cl [3-007, N-[2-[3-chloro-5-(cyclopropylethynyl)pyridin-2-yl]-2-methylpropyl]-2-(difluoromethyl)nicotinamide]	≥ 70	≥ 70	≥ 70	≥ 70	≥ 50	≥ 50
O=C(NCC(c1ncc(C#CC2CC2)cc1Cl)C1CC1)c1cccnc1C(F)F (stereo not drawn) [3-008]	≥ 70	≥ 70	≥ 70	≥ 70	≥ 50	≥ 50
CSC(CNC(=O)c1cccnc1C(F)F)c1ncc(C#CC2CC2)cc1Cl (stereo not drawn) [3-020]	≥ 70	≥ 70	≥ 70	≥ 70	≥ 50	≥ 50
COC(c1ncc(C#CC2CC2)cc1Cl)C(C)NC(=O)c1cccnc1C(F)F (stereo not drawn) [3-021]	≥ 70	≥ 70	≥ 70	≥ 70	≥ 50	≥ 50
Cn1cc(C(=O)NCCc2ncc(C#CC3CC3)cc2Cl)c(C(F)F)n1 [8-001]	≥ 70	≥ 70	≥ 70	≥ 70	≥ 50	≥ 50
Cn1cc(C(=O)NCCc2ncc(C#CC(C)(C)C)cc2Cl)c(C(F)F)n1 [8-002]	≥ 70	≥ 70	≥ 70	≥ 70	≥ 50	≥ 50
Cn1cc(C(=O)NCC(F)(F)c2ncc(C#CC3CC3)cc2Cl)c(C(F)F)n1 [8-003]	≥ 70	≥ 70	≥ 70	≥ 70	≥ 50	≥ 50
CC(CNC(=O)c1cn(C)nc1C(F)F)c1ncc(C#CC2CC2)cc1Cl (stereo not drawn) [8-007]	≥ 70	≥ 70	≥ 70	≥ 70	≥ 50	≥ 50
Cn1cc(C(=O)NCC(C)(C)c2ncc(C#CC3CC3)cc2Cl)c(C(F)F)n1 [8-008]	≥ 70	≥ 70	≥ 70	≥ 70	≥ 50	≥ 50
Cn1cc(C(=O)NCC(c2ncc(C#CC3CC3)cc2Cl)C2CC2)c(C(F)F)n1 (stereo not drawn) [8-009]	≥ 70	≥ 70	≥ 70	≥ 70	≥ 50	≥ 50
C=C(CNC(=O)c1cn(C)nc1C(F)F)c1ncc(C#CC2CC2)cc1Cl [8-011, N-[2-[3-chloro-5-(cyclopropylethynyl)pyridin-2-yl]-2-propenyl]-3-difluoromethyl-1-methyl-1H-pyrazole-4-carboxamide]	≥ 70	≥ 70	≥ 70	≥ 70	≥ 50	≥ 50
COC(CNC(=O)c1cn(C)nc1C(F)F)c1ncc(C#CC2CC2)cc1Cl (stereo not drawn) [8-019]	≥ 70	≥ 70	≥ 70	≥ 70	≥ 50	≥ 50
CSC(CNC(=O)c1cn(C)nc1C(F)F)c1ncc(C#CC2CC2)cc1Cl (stereo not drawn) [8-020, N-[2-[3-chloro-5-(cyclopropylethynyl)pyridin-2-yl]-2-(methylthio)ethyl]-3-difluoromethyl-1-methyl-1H-pyrazole-4-carboxamide]	≥ 70	≥ 70	≥ 70	≥ 70	≥ 50	≥ 50
COC(c1ncc(C#CC2CC2)cc1Cl)C(C)NC(=O)c1cn(C)nc1C(F)F (stereo not drawn) [8-028, N-[2-[3-chloro-5-(cyclopropylethynyl)pyridin-2-yl]-2-methoxy-1-methylethyl]-3-difluoromethyl-1-methyl-1H-pyrazole-4-carboxamide]	≥ 70	≥ 70	≥ 70	≥ 70	≥ 50	≥ 50
Cc1nc(C(F)F)c(C(=O)NCC(C)c2ncc(C#CC3CC3)cc2Cl)s1 (stereo not drawn) [9-002]	≥ 70	≥ 70	≥ 70	≥ 70	≥ 50	≥ 50
